In article PMC9304199, “A small molecule CFTR potentiator restores ATP‐dependent channel gating to the cystic fibrosis mutant G551D‐CFTR” (British Journal of Pharmacology, 2022):

Key:
G551D‐CFTR = G551D‐CFTR (Homo sapiens, UniProt P13569, G551D); test: Ussing chamber apical Cl− current (ICl apical) in FRT epithelia expressing G551D‐CFTR; type: cell-based; design: assays at Charles River Laboratories (ChanTest); settings: for EC50: G551D‐CFTR FRT epithelia, ICl apical, 27°C, read-out: EC50 (μM) (95% CI); for Emax: read-out: Maximal effect (%) (95% CI)
Method: Ussing chamber studies to determine the concentration–response relationships of CFTR potentiators (Figure 1c–f) were performed at Charles River Laboratories (ChanTest) (Cleveland, OH, USA). For these studies, FRT cells were stably transfected with CFTR cDNAs with the F508del and G551D variants and the common polymorphism M470 (synthesised by System Biosciences, Palo Alto, CA, USA) using the Flp‐In™ system (Thermo Fisher Scientific, Waltham, MA, USA). The F508del‐CFTR cDNA contained the following differences from the canonical CFTR cDNA sequence (NCBI Accession Number NM_000492): del CTT (1521–1523) to delete F508; synonymous changes T > C (798), A > G (801), T > C (804) to remove a cryptic bacterial promoter; synonymous change T > C (1095); G > A (1408) to give M470 and was amplified using the primers 5′ […] 3′ and 5′ […] 3′. The G551D‐CFTR cDNA contained the following differences from the canonical CFTR cDNA sequence (NCBI Accession Number NM_000492): G > A (1652) to replace G551 with D551; synonymous changes T > C (798), A > G (801), T > C (804) to remove a cryptic bacterial promoter; synonymous change A > C (516); synonymous change T > C (1095); G > A (1408) to give M470 and was amplified using the primers 5′ […] 3′ and 5′ […] 3′. Using Kpn1 and Not1 restriction sites, the F508del‐ and G551D‐CFTR cDNAs were inserted into pcDNA5/FRT (Flp‐In™) (RRID:Addgene_31984). An FRT cell line stably expressing a flippase (Flp)‐recombinase recognition target integration site (generated by Evotec AG, Hamburg, Germany, using isogenic FRT cells from LJV Galietta) was transfected with the F508del‐ and G551D‐CFTR plasmids and the Flp recombinase plasmid pOG44 (RRID:Addgene_129419) following the manufacturer's instructions. To identify FRT cells expressing F508del‐ and G551D‐CFTR, cells were grown under hygromycin selection and individual clones picked, expanded, and verified for CFTR expression. For Ussing chamber studies to determine the plasma membrane stability of F508del‐CFTR, FRT cells expressing F508del‐CFTR from LJV Galietta were cultured and used as described previously (Meng et al., [2017]).
To grow FRT cells as polarised epithelia, 2 × 10^5 FRT cells were seeded on Snapwell filter inserts and cultured for 7–14 days before use; media were changed every 2–3 days. […]
To test the effects of CP‐628006 on CFTR Cl^− channels in the apical membrane of FRT epithelia, we permeabilized the basolateral membrane with amphotericin B (100 μM). After cancelling voltage offsets, we clamped transepithelial voltage at 0 mV and measured apical Cl^− current (ICl ^apical) continuously using a Physiologic Instruments VCC MC6/8 multichannel voltage/current clamp (Li et al., [2004]).

F508del‐CFTR = F508del‐CFTR (Homo sapiens, UniProt P13569, DEL508-508); test: Thermal stability (deactivation) of F508del‐CFTR in excised inside-out membrane patches at 37°C; type: biochemical; design: expressed in transfected cells; BHK cells from MD Amaral
Method: To investigate the effects of CFTR potentiators on the plasma membrane stability of F508del‐CFTR, we monitored its thermal stability in excised inside‐out membrane patches at 37°C (Wang et al., [2014]). Membrane patches were excised and F508del‐CFTR Cl^− channels activated at 27°C. Once channels were fully activated and potentiated, the temperature of the intracellular solution was increased to 37°C, which took 2–3 min. To quantify data, we calculated open probability (Po) and normalised Po values in 30‐s intervals over a 9‐min period (Wang et al., [2014]).

G551D‐CFTR, sequence (P13569 whole entry G551D): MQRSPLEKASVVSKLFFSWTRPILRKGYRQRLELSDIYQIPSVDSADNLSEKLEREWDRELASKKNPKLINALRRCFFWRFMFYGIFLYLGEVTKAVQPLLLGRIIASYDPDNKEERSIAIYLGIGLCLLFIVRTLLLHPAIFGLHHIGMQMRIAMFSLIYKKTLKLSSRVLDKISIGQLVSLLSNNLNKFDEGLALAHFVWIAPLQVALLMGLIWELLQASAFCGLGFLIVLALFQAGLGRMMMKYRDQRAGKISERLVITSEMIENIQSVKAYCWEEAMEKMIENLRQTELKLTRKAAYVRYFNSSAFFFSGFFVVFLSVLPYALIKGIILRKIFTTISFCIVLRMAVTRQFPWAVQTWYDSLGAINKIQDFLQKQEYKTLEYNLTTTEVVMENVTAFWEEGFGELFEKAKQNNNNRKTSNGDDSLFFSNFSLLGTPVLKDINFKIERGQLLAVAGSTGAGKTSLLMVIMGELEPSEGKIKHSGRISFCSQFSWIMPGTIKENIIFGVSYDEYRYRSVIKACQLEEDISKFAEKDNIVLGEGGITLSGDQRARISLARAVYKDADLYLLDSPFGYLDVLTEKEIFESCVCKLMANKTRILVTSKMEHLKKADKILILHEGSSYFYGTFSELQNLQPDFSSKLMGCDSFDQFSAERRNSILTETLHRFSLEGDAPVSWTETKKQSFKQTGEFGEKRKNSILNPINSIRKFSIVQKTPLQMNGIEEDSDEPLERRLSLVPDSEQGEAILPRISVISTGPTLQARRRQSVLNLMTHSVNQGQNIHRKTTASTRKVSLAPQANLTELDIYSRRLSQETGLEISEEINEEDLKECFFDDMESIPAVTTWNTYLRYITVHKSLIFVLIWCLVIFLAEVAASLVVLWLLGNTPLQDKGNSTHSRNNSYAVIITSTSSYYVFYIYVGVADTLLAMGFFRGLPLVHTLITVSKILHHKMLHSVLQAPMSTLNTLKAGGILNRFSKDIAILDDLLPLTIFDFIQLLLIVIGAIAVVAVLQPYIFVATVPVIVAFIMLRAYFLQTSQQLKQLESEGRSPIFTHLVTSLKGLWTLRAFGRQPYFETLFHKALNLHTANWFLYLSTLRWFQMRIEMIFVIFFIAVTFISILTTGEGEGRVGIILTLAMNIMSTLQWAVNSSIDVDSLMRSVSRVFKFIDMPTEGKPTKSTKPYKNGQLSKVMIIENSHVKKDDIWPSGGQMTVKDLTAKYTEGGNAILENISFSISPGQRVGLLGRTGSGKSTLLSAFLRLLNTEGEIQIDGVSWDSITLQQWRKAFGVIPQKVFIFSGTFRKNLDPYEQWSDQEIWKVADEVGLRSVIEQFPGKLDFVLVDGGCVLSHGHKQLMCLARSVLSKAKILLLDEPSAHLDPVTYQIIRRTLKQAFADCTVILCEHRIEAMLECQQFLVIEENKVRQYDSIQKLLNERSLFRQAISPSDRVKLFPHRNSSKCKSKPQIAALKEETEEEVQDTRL
F508del‐CFTR, sequence (P13569 with tags, fused parts or gaps DEL508-508): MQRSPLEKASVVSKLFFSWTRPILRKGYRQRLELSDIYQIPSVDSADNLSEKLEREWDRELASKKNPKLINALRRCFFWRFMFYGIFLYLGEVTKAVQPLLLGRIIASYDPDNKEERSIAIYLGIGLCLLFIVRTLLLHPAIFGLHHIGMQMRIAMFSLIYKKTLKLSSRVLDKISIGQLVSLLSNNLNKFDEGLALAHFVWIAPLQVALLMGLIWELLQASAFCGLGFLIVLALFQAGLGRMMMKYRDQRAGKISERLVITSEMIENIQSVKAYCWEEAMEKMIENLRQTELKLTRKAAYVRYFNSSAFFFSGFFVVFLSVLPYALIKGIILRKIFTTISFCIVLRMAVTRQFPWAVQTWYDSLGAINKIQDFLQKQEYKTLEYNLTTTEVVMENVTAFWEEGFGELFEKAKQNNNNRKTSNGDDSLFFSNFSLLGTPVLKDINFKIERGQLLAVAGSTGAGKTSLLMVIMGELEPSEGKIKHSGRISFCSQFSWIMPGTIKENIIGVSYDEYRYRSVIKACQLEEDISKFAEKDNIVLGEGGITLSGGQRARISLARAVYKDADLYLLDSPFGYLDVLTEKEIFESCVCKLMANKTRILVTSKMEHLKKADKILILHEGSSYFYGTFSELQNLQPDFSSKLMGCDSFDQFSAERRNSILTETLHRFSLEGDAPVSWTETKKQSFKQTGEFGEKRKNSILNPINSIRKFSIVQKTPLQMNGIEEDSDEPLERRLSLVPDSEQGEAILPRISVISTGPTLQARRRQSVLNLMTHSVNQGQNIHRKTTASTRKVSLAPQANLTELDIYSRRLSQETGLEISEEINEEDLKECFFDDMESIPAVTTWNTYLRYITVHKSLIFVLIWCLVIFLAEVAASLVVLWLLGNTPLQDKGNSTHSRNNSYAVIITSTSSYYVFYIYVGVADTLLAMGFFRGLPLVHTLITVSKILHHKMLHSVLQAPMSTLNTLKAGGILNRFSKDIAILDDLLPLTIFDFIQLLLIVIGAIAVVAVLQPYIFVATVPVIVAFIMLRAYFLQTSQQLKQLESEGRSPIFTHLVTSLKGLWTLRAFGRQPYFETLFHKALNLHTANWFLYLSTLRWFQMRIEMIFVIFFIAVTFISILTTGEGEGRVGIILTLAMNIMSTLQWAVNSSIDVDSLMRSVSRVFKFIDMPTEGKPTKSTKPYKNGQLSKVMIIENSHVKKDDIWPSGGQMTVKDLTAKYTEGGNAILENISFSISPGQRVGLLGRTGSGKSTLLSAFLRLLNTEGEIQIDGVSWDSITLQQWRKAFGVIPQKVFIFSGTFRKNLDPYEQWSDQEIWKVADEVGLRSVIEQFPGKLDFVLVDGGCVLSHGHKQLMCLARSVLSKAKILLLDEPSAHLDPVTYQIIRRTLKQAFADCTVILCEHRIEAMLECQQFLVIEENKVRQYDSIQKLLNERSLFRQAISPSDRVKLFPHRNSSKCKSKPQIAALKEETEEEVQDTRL

SMILES | EC50 (G551D‐CFTR) [µM] | Emax (G551D‐CFTR) [%] | increase of time to normalised Po of 50% relative to low temperature-rescued (F508del‐CFTR; compound 10 μM) | delay of F508del‐CFTR deactivation (time to reach normalised Po of 50%) (F508del‐CFTR; compound 10 μM, ATP 1 mM, PKA 75 nM, versus low temperature-rescued control) | acceleration of F508del‐CFTR deactivation (time to reach normalised Po of 50%) (F508del‐CFTR; compound 1 μM, ATP 1 mM, PKA 75 nM, versus low temperature-rescued control)
Cc1ncccc1CNC(=O)c1ccc2c(c1)CC[C@H]1C[C@](O)(CCC(F)(F)F)CC[C@]21Cc1ccccc1 (racemic) [CP‐628006, rac‐(4bR,7R,8aS)‐4b‐benzyl‐7‐hydroxy‐N‐((2‐methylpyridin‐3‐yl)methyl)‐7‐(3,3,3‐trifluoropropyl)‐4b,5,6,7,8,8a,9,10‐octahydrophenanthrene‐2‐carboxamide] | 1.68 | 39 | approximately 67% | ~ 90 s | –
CC(C)(C)c1cc(C(C)(C)C)c(NC(=O)c2c[nH]c3ccccc3c2=O)cc1O [ivacaftor, reference compound] | 0.003 | 97 | – | – | ~ 30 s
